No end group written: not given here.
What was measured:
HIV-1IIIB = assay: HIV-1 antiviral assay in CEM-SS cells (MTS readout); assay type: cell-based
HCMV strain AD169 = assay: HCMV plaque formation assay in MRC-5 cells
[1] = tested on: hepatitis B virus (HBV) ayw strain; assay: HBV experimental assay system (secreted HBV DNA, TaqMan PCR); assay type: cell-based; details: 10 micrograms per ml; HepG2-2.2.15 cells; six days
IL-4 spleen cells = assay: Th1/Th2 cytokine profiling assay, IL-4; assay type: cell-based, Balb/c mice; details: 10 micrograms per ml; Ovalbumin restimulation; 72 hours
Source text: (§1) The Balb/c mice (originated in 1923, it is a popular strain and is used in many different research disciplines. Also classified as an inbred from the production of 20 or more successive brother-sister matings, the Balb/c mouse is albino and small in size) were immunized on Days 1, 15, and 29 with Ovalbumin (Ovalbumin is the main protein found in egg white, commonly used to stimulate an immunological reaction in test animals) in PBS (5 micrograms/injection). On day 50, spleens of the mice were harvested (3 weeks after last boost with Ovalbumin). […] Thereafter, additional Ovalbumin was added to the cells at 10 micrograms/ml for in vitro restimulation of the cells. 72 hours later, cell supernatants were harvested and assayed using the Becton Dickinson Mouse Th1/Th2 Cytokine CBA Kit.

IFNγ spleen cells = assay: Th1/Th2 cytokine profiling assay, IFNγ; assay type: cell-based, Balb/c mice; details: 10 micrograms per ml; Ovalbumin restimulation; 72 hours
Source text: as §1

RAW 264.7 cells = assay: Phagocytosis assay (Fluorescein-labeled Escherichia coli, flow cytometry); details: 10 micrograms per ml
TNF-a spleen cells = assay: Th1/Th2 cytokine profiling assay, TNF-a; assay type: cell-based, Balb/c mice; details: 10 micrograms per ml; Ovalbumin restimulation; 72 hours
Source text: as §1

IL-2 spleen cells = assay: Th1/Th2 cytokine profiling assay, IL-2; assay type: cell-based, Balb/c mice; details: 10 micrograms per ml; Ovalbumin restimulation; 72 hours
Source text: as §1

IL-5 spleen cells = assay: Th1/Th2 cytokine profiling assay, IL-5; assay type: cell-based, Balb/c mice; details: 10 micrograms per ml; Ovalbumin restimulation; 72 hours
Source text: as §1

A549 cells = assay: Apoptosis prevention assay (C2 ceramide, Annexin-5); assay type: cell-based, human; details: 10 micrograms per ml, 30 min pretreatment
Procedure: Human A549 cells (carcinomic human alveolar basal epithelial cells) were utilized in the experiments employing the Annexin-5 apoptosis assay. […] A549 cells were pretreated for 30 min with test peptides—10 micrograms per ml—followed by the exposure to C2 ceramide.

Molecule | antiviral activity of positive control compounds (HIV-1) (HIV-1IIIB) | antiviral activity of positive control compound (HCMV) (HCMV strain AD169) | inhibition of HBV replication as compared to the virus control infection [1] | IL-4 spleen cells; TH2 response (% of control) (IL-4 spleen cells) | IFNγ spleen cells; TH1 response (% of control) (IFNγ spleen cells) | increase of the phagocytic activity of murine macrophages (RAW 264.7 cells) [%] | TNF-a spleen cells; TH1 response (% of control) (TNF-a spleen cells) | IL-2 spleen cells (% of control) (IL-2 spleen cells) | IL-5 spleen cells; TH2 response (% of control) (IL-5 spleen cells) | prevention (reduction) of ceramide-induced apoptosis on human lung cells (A549 cells) [%]
Cc1cn([C@H]2C[C@H](N=[N+]=[N-])[C@@H](CO)O2)c(=O)[nH]c1=O [AZT] | expected levels of antiviral activity |  |  |  |  |  |  |  |  | 
Nc1nc(O)c2ncn(COC(CO)CO)c2n1 [Ganciclovir] |  | expected levels of antiviral activity |  |  |  |  |  |  |  | 
CC(C)(C)NC(=O)[C@@H]1CN(Cc2cccnc2)CCN1C[C@@H](O)C[C@@H](Cc1ccccc1)C(=O)N[C@H]1c2ccccc2C[C@H]1O [indinavir] | expected levels of antiviral activity |  |  |  |  |  |  |  |  | 
Arg-Pro-Lys-Pro-Gln-Gln-Phe-Phe-Gly-Leu-Met-NH2 (RPKPQQFFGLM-NH2) [Peptide 1] |  |  | 30.2% | 106.2 % of control | 136.4 % of control | 28.6 | 101.0 % of control | 113.6 % of control | 64.0 % of control | 10.9
Pyr-His-Pro-NH2 [Peptide 2] |  |  | no effect | 106.2 % of control | 102.0 % of control | 31.4 | 110.7 % of control | 0.0 % of control | 67.5 % of control | 17.2

From patent publication US20100190722A1, “SUBSTANCE P AND THYROTROPIN RELEASING HORMONE FOR THERAPEUTIC APPLICATIONS” (priority 2007, published 2010)
